Reference: PubChem BioAssay AID1963973 (Molecular Pharmacology Branch, DTP, NCI, 2024)

System: 883617-216-R-J1-PDC tumor spheroids, viability
Experiment: Anticancer human tumor 883617-216-R-J1-PDC patient-derived bladder carcinoma cell line growth inhibition [PI3K]
Conditions: spheroids with HUVEC and MSC; for IC50: curve of first compound; for viability, T/C: stronger effect = lower value
Procedure, shortened: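 High-throughput combination screen: PI3K inhibitors crossed with targeted small molecules on complex spheroids of tumor cells, HUVEC and MSCs at 37 degrees C, 5% CO2. Top concentration was at or near clinical Cmax (otherwise 10 microM), with half-log decrements.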
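Note: spheroids exposed to agents for 7 days before the viability read.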

Compound: Cn1cnc2c(F)c(Nc3ccc(Br)cc3Cl)c(C(=O)NOCCO)cc21 + CC(Nc1ncnc2nc[nH]c12)c1cc2cccc(Cl)c2c(=O)n1-c1ccccc1
- IC50 (second compound 0.0316 µM): 43.1 nM
- IC50 (second compound 0.1 µM): 39.3 nM
- IC50 (second compound 0.316 µM): 32.7 nM
- IC50 (second compound 1 µM): 22.7 nM
- IC50 (second compound 3.16 µM): 9.6 nM
- IC50 (second compound 10 µM): < 9.49 nM
- viability, T/C (second compound 0.0316 µM, first compound 0.00949 µM): 64.3%
- viability, T/C (second compound 0.0316 µM, first compound 0.03 µM): 56.1%
- viability, T/C (second compound 0.0316 µM, first compound 0.0949 µM): 39.5%
- viability, T/C (second compound 0.0316 µM, first compound 0.3 µM): 33.4%
- viability, T/C (second compound 0.0316 µM, first compound 0.949 µM): 33.5%
- viability, T/C (second compound 0.0316 µM, first compound 3 µM): 19.9%
- viability, T/C (second compound 0.1 µM, first compound 0.00949 µM): 66.4%
- viability, T/C (second compound 0.1 µM, first compound 0.03 µM): 55%
- viability, T/C (second compound 0.1 µM, first compound 0.0949 µM): 35.6%
- viability, T/C (second compound 0.1 µM, first compound 0.3 µM): 28.8%
- viability, T/C (second compound 0.1 µM, first compound 0.949 µM): 30%
- viability, T/C (second compound 0.1 µM, first compound 3 µM): 19.7%
- viability, T/C (second compound 0.316 µM, first compound 0.00949 µM): 68.8%
- viability, T/C (second compound 0.316 µM, first compound 0.03 µM): 51%
- viability, T/C (second compound 0.316 µM, first compound 0.0949 µM): 37.8%
- viability, T/C (second compound 0.316 µM, first compound 0.3 µM): 28.4%
- viability, T/C (second compound 0.316 µM, first compound 0.949 µM): 23.9%
- viability, T/C (second compound 0.316 µM, first compound 3 µM): 19.6%
- viability, T/C (second compound 1 µM, first compound 0.00949 µM): 60%
- viability, T/C (second compound 1 µM, first compound 0.03 µM): 44.9%
- viability, T/C (second compound 1 µM, first compound 0.0949 µM): 39.4%
- viability, T/C (second compound 1 µM, first compound 0.3 µM): 28%
- viability, T/C (second compound 1 µM, first compound 0.949 µM): 22.4%
- viability, T/C (second compound 1 µM, first compound 3 µM): 19%
- viability, T/C (second compound 3.16 µM, first compound 0.00949 µM): 50.3%
- viability, T/C (second compound 3.16 µM, first compound 0.03 µM): 37%
- viability, T/C (second compound 3.16 µM, first compound 0.0949 µM): 23.2%
- viability, T/C (second compound 3.16 µM, first compound 0.3 µM): 20.6%
- viability, T/C (second compound 3.16 µM, first compound 0.949 µM): 19%
- viability, T/C (second compound 3.16 µM, first compound 3 µM): 11%
- viability, T/C (second compound 10 µM, first compound 0.00949 µM): 31.2%
- viability, T/C (second compound 10 µM, first compound 0.03 µM): 24.7%
- viability, T/C (second compound 10 µM, first compound 0.0949 µM): 17.8%
- viability, T/C (second compound 10 µM, first compound 0.3 µM): 13.3%
- viability, T/C (second compound 10 µM, first compound 0.949 µM): 12.4%
- viability, T/C (second compound 10 µM, first compound 3 µM): 8.11%

Compound: CC1(C)CCC(Nc2ncc(C(F)(F)F)c(-c3c[nH]c4c(P(C)(C)=O)c(C#N)ccc34)n2)CN1 (centres undefined) + CC(Nc1ccc2c(c1)OCCn1cc(N3C(=O)OCC3C(F)F)nc1-2)C(N)=O
- IC50 (second compound 0.00316 µM): < 31.6 nM
- IC50 (second compound 0.01 µM): < 31.6 nM
- IC50 (second compound 0.0316 µM): < 31.6 nM
- IC50 (second compound 0.1 µM): < 31.6 nM
- IC50 (second compound 0.316 µM): < 31.6 nM
- IC50 (second compound 1 µM): < 31.6 nM
- viability, T/C (second compound 0.00316 µM, first compound 0.0316 µM): 31.5%
- viability, T/C (second compound 0.00316 µM, first compound 0.1 µM): 17.9%
- viability, T/C (second compound 0.00316 µM, first compound 0.316 µM): 17.6%
- viability, T/C (second compound 0.00316 µM, first compound 1 µM): 14%
- viability, T/C (second compound 0.00316 µM, first compound 3.16 µM): 6.49%
- viability, T/C (second compound 0.00316 µM, first compound 10 µM): 0.36%
- viability, T/C (second compound 0.01 µM, first compound 0.0316 µM): 30.4%
- viability, T/C (second compound 0.01 µM, first compound 0.1 µM): 23.2%
- viability, T/C (second compound 0.01 µM, first compound 0.316 µM): 19.7%
- viability, T/C (second compound 0.01 µM, first compound 1 µM): 18.7%
- viability, T/C (second compound 0.01 µM, first compound 3.16 µM): 6.21%
- viability, T/C (second compound 0.01 µM, first compound 10 µM): 0.37%
- viability, T/C (second compound 0.0316 µM, first compound 0.0316 µM): 30.2%
- viability, T/C (second compound 0.0316 µM, first compound 0.1 µM): 18.7%
- viability, T/C (second compound 0.0316 µM, first compound 0.316 µM): 21.8%
- viability, T/C (second compound 0.0316 µM, first compound 1 µM): 14.3%
- viability, T/C (second compound 0.0316 µM, first compound 3.16 µM): 4.74%
- viability, T/C (second compound 0.0316 µM, first compound 10 µM): 0.17%
- viability, T/C (second compound 0.1 µM, first compound 0.0316 µM): 25.5%
- viability, T/C (second compound 0.1 µM, first compound 0.1 µM): 17.6%
- viability, T/C (second compound 0.1 µM, first compound 0.316 µM): 19.1%
- viability, T/C (second compound 0.1 µM, first compound 1 µM): 12.2%
- viability, T/C (second compound 0.1 µM, first compound 3.16 µM): 4.58%
- viability, T/C (second compound 0.1 µM, first compound 10 µM): 0.1%
- viability, T/C (second compound 0.316 µM, first compound 0.0316 µM): 21.6%
- viability, T/C (second compound 0.316 µM, first compound 0.1 µM): 15.4%
- viability, T/C (second compound 0.316 µM, first compound 0.316 µM): 14.2%
- viability, T/C (second compound 0.316 µM, first compound 1 µM): 10.8%
- viability, T/C (second compound 0.316 µM, first compound 3.16 µM): 3%
- viability, T/C (second compound 0.316 µM, first compound 10 µM): 0.12%
- viability, T/C (second compound 1 µM, first compound 0.0316 µM): 13.9%
- viability, T/C (second compound 1 µM, first compound 0.1 µM): 10.4%
- viability, T/C (second compound 1 µM, first compound 0.316 µM): 9.92%
- viability, T/C (second compound 1 µM, first compound 1 µM): 12.2%
- viability, T/C (second compound 1 µM, first compound 3.16 µM): 2.77%
- viability, T/C (second compound 1 µM, first compound 10 µM): 0.33%
